Results published in patent US8637702B2, “Derivatives of N-hydroxybenzamide for treating HIV infections” (Italfarmaco S.p.A., priority 2009, dated 2014).

How the values were obtained:
[1] = test system: HIV-1 expression in ACH-2 cells; assay: Induction of the HIV-1 expression in the ACH-2 cell line (p24); assay type: cell-based; conditions: 24 hours
Protocol: ACH2 cells were obtained through AIDS Research and Reference Reagent Program, Division of AIDS, National Institute of Allergy and Infectious Diseases, National Institutes of Health, Bethesda, Md. The cells were cultured in flasks, washed in RPMI and resuspended in RPMI/10% FCS at a concentration of 2×10^6 cells/mL. […] After 24 hours of incubation at 37° C./5% CO2, 50 μL of supernatant were removed for the cytotoxicity assay of the lactate dehydrogenase (LDH) and Triton-X-100 (0.5% vol/vol final concentration) were added to each culture. The p24 assays of the lysates were performed immediately.
p24 was measured using specific antibodies immobilized on magnetic beads as previously described [Nold M. F. et al. J. Immunol. […] The levels of p24 for each experiment without HDAC inhibitors were fixed at 1.0 and the increase values by the number of times for each experiment and each analogous were calculated.

[2] = Monzani et al., EUROTOX 2007; cited from earlier work
HDAC4 = HDAC4 (Homo sapiens, UniProt P56524); assay: Inhibition of histone deacetylase isoforms, HDAC4
Protocol: (§1) Recombinant human enzymes were acquired from BPS Biosciences (CA, USA). Isoforms of Class I HDAC1, 2, 3; HDAC6, 10 of Class IIb and Class IV HDAC11 were tested using the Fluor-de-Lys fluorogenic synthetic substrate (Enzo Life Sciences, Plymouth Meeting, Pa.). […] Each inhibitor was dissolved in DMSO and then further diluted in an assay buffer. […] The assays were performed by pre-incubating each enzyme with the inhibitors for 15 minutes at 37° C. The reaction was started by adding the substrate at 37° C. and allowed to proceed for 60 minutes. The fluorescent signal was generated by adding 50 μL of a twice concentrated developer solution 2 (Enzo) containing trichostatin A 4 μM.

HDAC9 = HDAC9 (Homo sapiens, UniProt Q9UKV0); assay: Inhibition of histone deacetylase isoforms, HDAC9
Protocol: as §1

HDAC10 = target: T1, HDAC10 (Homo sapiens, UniProt Q969S8); assay: Inhibition of histone deacetylase isoforms, HDAC10
T1 sequence (Q969S8 1-669): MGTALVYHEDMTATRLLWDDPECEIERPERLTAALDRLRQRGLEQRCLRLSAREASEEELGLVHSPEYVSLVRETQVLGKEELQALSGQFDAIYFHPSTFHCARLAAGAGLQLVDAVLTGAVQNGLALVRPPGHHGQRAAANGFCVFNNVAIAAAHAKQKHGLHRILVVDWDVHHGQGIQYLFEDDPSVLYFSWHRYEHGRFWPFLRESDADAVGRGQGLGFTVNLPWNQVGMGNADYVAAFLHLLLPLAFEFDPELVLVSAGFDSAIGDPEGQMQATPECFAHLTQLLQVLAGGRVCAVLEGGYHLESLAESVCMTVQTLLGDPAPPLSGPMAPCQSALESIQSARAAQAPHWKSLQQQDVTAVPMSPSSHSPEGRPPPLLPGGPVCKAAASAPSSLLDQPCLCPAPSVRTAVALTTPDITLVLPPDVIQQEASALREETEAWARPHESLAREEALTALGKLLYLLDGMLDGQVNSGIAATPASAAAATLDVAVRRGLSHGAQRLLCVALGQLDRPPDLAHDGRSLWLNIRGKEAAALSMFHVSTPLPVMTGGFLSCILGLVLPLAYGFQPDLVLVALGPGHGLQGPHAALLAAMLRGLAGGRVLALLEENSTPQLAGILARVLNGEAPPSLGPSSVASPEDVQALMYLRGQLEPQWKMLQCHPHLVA
Protocol: as §1

bacteria = conditions: in vitro, Zolinza package leaflet; cited from earlier work
[3] = test system: micronucleated erythrocytes; conditions: administered to mice, Zolinza package leaflet; cited from earlier work
[4] = 400 mg/day, Zolinza package leaflet; cited from earlier work
latent HIV reservoir = conditions: combined with HAART, clinical studies; cited from earlier work

Sequence of HDAC9 (Q9UKV0 whole entry, canonical isoform): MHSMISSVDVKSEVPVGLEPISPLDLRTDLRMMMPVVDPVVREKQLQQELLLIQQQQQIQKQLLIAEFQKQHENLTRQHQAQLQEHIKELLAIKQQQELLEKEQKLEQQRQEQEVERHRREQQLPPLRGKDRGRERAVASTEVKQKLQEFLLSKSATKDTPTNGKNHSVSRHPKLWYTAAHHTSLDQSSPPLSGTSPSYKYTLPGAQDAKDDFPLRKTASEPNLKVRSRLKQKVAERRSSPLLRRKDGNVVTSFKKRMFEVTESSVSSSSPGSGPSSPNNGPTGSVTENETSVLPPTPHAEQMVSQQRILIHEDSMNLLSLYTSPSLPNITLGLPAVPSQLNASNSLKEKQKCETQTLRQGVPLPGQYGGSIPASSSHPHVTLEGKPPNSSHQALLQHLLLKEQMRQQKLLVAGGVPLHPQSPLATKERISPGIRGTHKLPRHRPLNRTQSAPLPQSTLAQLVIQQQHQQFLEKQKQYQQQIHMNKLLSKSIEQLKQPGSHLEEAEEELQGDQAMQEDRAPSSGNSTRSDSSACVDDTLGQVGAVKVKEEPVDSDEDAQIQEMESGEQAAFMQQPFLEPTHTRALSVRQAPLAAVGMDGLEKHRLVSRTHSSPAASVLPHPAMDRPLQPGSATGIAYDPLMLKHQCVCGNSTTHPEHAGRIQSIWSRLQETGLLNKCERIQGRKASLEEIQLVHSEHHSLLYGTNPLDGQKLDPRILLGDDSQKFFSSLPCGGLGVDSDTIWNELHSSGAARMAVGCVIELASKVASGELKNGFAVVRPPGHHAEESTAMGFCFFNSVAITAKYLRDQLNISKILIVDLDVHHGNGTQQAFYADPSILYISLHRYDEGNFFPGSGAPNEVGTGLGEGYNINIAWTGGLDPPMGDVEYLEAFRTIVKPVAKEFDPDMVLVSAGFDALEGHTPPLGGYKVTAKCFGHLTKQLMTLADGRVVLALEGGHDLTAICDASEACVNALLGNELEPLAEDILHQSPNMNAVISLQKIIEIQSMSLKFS
Sequence of HDAC4 (P56524 whole entry, canonical isoform): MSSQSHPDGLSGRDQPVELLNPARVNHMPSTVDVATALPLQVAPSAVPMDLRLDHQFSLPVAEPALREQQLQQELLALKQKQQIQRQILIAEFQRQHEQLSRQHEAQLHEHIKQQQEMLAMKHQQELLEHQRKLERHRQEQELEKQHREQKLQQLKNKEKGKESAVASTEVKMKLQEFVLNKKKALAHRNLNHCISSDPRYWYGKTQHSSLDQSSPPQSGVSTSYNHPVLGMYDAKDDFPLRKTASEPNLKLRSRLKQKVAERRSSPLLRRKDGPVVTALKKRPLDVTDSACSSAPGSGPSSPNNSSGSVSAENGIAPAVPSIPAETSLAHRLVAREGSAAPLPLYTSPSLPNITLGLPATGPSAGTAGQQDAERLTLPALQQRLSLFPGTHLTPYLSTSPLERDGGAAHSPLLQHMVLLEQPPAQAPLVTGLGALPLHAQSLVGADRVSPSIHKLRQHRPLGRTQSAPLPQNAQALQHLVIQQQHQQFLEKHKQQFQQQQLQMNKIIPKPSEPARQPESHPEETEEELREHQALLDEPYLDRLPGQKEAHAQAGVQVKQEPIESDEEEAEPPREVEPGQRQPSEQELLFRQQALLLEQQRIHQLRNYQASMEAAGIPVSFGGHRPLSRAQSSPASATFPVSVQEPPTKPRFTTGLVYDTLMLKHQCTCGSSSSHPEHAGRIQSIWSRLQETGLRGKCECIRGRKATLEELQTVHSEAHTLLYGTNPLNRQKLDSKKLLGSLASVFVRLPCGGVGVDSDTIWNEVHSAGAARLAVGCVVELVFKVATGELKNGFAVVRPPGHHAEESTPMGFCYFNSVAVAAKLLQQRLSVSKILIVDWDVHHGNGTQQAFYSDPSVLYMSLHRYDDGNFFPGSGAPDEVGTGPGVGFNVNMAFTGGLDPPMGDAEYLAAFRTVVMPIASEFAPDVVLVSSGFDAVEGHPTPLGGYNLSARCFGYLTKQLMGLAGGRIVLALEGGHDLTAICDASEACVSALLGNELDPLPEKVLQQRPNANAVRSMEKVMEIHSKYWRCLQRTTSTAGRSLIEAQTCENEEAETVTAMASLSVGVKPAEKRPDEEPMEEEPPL

For `CCN(CC)Cc1ccc2cc(COC(=O)Nc3ccc(C(=O)NO)cc3)ccc2c1.Cl` [ITF2357, Diethyl-[6-(4-hydroxycarbamoyl-phenylcarbamoyloxymethyl)-naphtalen-2-yl-methyl]ammonium chloride], the “increase of the number of times in the level of p24 with respect to control” value (from here on “increase of the number of times”) ([1]; 31 nM) was 1 times, the “increase of the number of times” value ([1]; 63 nM) was 1 times and the “increase of the number of times” value ([1]; 125 nM) was 2 times. The “increase of the number of times” value ([1]; 250 nM) was 15 times, the mutagenicity [2] was “non-mutagenic” and the IC50 (HDAC4) was 724 nM. For the same compound, the IC50 (HDAC9) was 518 nM and the IC50 (HDAC10) was 351 nM.

For `O=C(CCCCCCC(=O)Nc1ccccc1)NO` [SAHA], the “mutagenicity in bacterial back-mutation assays (Ames test)” value (bacteria) is given as “mutagenic”, the “incidence of micronucleated erythrocytes” value [3] is given as “increases the incidence of micronucleated erythrocytes” and the “adverse effects in patients” value [4] is given as “numerous, serious adverse effects such as diarrhoea, tiredness, nausea, thrombocytopenia, anorexia and dysgeusia”.

In the case of `CCCC(CCC)C(=O)O` [VPA, Valproic acid], the “diminution of the latent reservoir” value (latent HIV reservoir) is listed as “without leading to any considerable diminution of the latent reservoir”.
